# Source: patent US8013153B2, “Substituted pyrimidine kinase inhibitors” (Janssen Pharmaceutica, N.V., priority 2006, dated 2011)
# Where two headings read alike, the source gives them in different places.
# Experiments:
# A375 malignant melanoma = test: Inhibition of in vitro cell proliferation (A375); assay type: cell-based, human; details: Homo sapiens, A-375, 14C-thymidine incorporation;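 also: cells plated for 24 h, given compound for 24 h, then labelled with 14C-thymidine for another 24 h, with DMSO-only wells as control and counts read by scintillation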
# [1] = test system: HeLa cervical adenocarcinoma; test: Inhibition of in vitro cell proliferation (HeLa); assay type: cell-based, human; details: Homo sapiens, 14C-thymidine incorporation;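 also: cells exposed to compound for 24 h, then labelled 24 h with methyl 14C-thymidine, with uptake into DNA counted by scintillation against DMSO-only control wells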
# HCT-116 colon carcinoma = test: Inhibition of in vitro cell proliferation (HCT116); assay type: cell-based, human; details: Homo sapiens, HCT-116, 14C-thymidine incorporation;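 also: cells exposed to compound for 24 h, then 14C-thymidine added for a further 24 h and its uptake into DNA counted by scintillation, DMSO-only wells as control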
# murine Aurora-A = molecular target: T1, murine Aurora-A (Mus musculus, UniProt P97477); test: Aurora-A Screening Assay; assay type: biochemical
# T1 construct: replaced with the full length protein encoding the murine Aurora-A; made in house; host or cells: sf9 insect cells
# T1 sequence (P97477 1-395): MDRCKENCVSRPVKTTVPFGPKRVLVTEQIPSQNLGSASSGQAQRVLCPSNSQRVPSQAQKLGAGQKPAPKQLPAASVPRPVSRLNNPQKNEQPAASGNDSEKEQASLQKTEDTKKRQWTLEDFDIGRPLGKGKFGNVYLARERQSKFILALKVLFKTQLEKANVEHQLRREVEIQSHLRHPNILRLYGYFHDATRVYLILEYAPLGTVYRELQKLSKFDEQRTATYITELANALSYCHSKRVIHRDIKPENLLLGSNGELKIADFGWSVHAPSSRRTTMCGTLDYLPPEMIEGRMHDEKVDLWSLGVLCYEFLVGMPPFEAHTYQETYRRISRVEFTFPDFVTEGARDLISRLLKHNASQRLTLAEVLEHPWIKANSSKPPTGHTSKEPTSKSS
# HER2 cytoplasmic domain = molecular target: T2, HER2 cytoplasmic domain (Homo sapiens, UniProt P04626); test: HER2 Kinase Screening Assay; assay type: biochemical; details: > means no observed 50% inhibition at the indicated test concentration; ~ means approximately 50% inhibition at that concentration
# T2 construct: polyhistidine (N)
# T2 sequence (P04626 676-1255 limits assumed): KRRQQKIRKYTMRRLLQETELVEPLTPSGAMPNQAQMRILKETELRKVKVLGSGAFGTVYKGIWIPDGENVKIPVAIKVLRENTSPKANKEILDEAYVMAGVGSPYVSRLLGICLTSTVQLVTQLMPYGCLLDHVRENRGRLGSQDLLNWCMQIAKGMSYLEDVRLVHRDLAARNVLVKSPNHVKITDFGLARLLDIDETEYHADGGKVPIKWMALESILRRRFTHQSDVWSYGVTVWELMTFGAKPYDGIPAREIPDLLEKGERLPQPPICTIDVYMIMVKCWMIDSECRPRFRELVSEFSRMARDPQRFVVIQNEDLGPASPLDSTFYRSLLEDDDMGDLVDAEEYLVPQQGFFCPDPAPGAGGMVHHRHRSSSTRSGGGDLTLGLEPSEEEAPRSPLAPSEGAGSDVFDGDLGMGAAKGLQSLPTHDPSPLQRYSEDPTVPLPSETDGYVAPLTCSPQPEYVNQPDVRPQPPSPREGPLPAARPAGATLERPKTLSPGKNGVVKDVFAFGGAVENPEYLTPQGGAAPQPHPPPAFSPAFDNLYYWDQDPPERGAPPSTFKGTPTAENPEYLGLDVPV
# [2] = molecular target: T3, rat VEGF-R2 kinase domain (Rattus norvegicus, UniProt O08775); test: VEGF-R2 Screening Assay; assay type: biochemical
# T3 construct: amino acids 786-1343 of the rat VEGF-R2 kinase domain; polyhistidine (N)
# T3 sequence (O08775 786-1343): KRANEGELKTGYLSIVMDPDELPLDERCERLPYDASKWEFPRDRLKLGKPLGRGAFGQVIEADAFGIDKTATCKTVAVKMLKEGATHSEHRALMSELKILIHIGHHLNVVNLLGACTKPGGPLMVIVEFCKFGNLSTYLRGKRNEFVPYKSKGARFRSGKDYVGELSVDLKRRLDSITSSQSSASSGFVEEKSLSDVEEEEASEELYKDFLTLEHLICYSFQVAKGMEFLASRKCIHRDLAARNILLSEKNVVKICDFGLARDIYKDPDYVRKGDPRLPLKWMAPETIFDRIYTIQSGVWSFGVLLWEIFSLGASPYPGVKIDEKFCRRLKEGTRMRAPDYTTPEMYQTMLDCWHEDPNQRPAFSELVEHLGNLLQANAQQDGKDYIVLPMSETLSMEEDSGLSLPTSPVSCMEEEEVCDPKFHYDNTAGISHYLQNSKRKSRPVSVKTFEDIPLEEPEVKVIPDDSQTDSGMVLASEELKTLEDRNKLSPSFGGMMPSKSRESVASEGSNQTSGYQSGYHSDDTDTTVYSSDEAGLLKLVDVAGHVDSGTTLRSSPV
# CDK1:Cyclin-B = molecular target: T4, CDK1:Cyclin-B (Homo sapiens, UniProt P06493); test: CDK1 Screening Assay; assay type: biochemical
# T4 construct: purchased New England Biolabs, Beverly, Mass; 6020; host or cells: insect cells
# T4 sequence (P06493 whole entry): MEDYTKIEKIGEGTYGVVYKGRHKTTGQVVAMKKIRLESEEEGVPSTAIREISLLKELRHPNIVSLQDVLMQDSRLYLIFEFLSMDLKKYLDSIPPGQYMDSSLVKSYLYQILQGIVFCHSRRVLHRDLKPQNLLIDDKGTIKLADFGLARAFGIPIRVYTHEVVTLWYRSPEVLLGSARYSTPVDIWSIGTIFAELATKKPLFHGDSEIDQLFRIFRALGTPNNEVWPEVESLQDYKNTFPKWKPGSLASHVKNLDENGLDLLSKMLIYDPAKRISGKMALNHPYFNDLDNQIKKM
# T4 sequence (P14635 whole entry partner): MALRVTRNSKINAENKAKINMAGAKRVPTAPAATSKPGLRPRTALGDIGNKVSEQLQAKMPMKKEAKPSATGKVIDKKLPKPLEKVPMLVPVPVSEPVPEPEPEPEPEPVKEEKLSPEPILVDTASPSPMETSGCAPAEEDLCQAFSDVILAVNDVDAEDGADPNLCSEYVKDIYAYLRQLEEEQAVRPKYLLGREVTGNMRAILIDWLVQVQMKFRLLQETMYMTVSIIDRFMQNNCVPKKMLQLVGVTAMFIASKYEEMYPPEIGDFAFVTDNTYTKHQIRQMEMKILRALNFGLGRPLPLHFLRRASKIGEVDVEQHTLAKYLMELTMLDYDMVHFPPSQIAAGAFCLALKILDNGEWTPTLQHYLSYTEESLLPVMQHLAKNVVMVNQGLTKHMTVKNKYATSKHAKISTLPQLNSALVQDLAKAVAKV
# [3] = > means no observed 50% inhibition at the indicated test concentration, ~ means approximately 50% inhibition at that concentration, read-out: IC50 VEGF-R2
"IC50 [2, 3] [µM]",Compound,IC50 (A375 malignant melanoma) [µM],IC50 [1] [µM],IC50 (HCT-116 colon carcinoma) [µM],IC50 (murine Aurora-A) [µM],IC50 (HER2 cytoplasmic domain) [µM],IC50 (CDK1:Cyclin-B) [µM],IC50 ([2]; IC50 VEGF-R2) [µM]
0.0275,"C#CCNC(=O)Nc1ccc(Oc2ncnc(N)c2C=NOC)cc1Cl [Cpd 79, 1-{4-[6-amino-5-(methoxyimino-methyl)-pyrimidin-4-yloxy]-2-chloro-phenyl}-3-prop-2-ynyl-urea]",2.2,3.58,3.72,> 100,> 100,> 100,
0.0407,"CON=Cc1c(N)ncnc1Oc1ccc(CC(=O)Nc2ccccc2)cc1 [Cpd 97, 2-{4-[6-amino-5-(methoxyimino-methyl)-pyrimidin-4-yloxy]-phenyl}-N-phenyl-acetamide]",> 10,> 10,> 10,> 100,1.31,> 100,
0.0542,"CON=Cc1c(N)ncnc1Oc1ccc2c(c1)cc(C)n2C(=O)NCCCCN1CCCC1 [Cpd 42, 5-[6-amino-5-(methoxyimino-methyl)-pyrimidin-4-yloxy]-2-methyl-indole-1-carboxylic acid (4-pyrrolidin-1-yl-butyl)-amide]",> 1,> 10,> 10,> 100,> 10,> 100,
0.0076,"CCCNC(=O)n1c(C)cc2cc(Oc3ncnc(N)c3C=NOC)ccc21 [Cpd 48, 5-[6-amino-5-(methoxyimino-methyl)-pyrimidin-4-yloxy]-2-methyl-indole-1-carboxylic acid propylamide]",1.15,3.37,1.22,> 100,> 10,> 100,
0.0577,"Cc1cc2c(F)c(Oc3ncnc(N)c3C=NOCCCCO)ccc2[nH]1 [Cpd 38, 4-amino-6-(4-fluoro-2-methyl-1H-indol-5-yloxy)-pyrimidine-5-carbaldehyde O-(4-hydroxy-butyl)-oxime]",0.618,1.83,2.34,> 100,0.868,> 100,
4.36,"CON=Cc1c(N)ncnc1Oc1ccc(O)cc1 [Cpd 67, 4-amino-6-(4-hydroxy-phenoxy)-pyrimidine-5-carbaldehyde O-methyl-oxime]",3.22,3.99,2.95,17.8,13.1,> 100,
> 100,"CNC(=O)Nc1ccc(Oc2ncnc(N)c2C=NOC)cc1Br [Cpd 73, 1-{4-[6-amino-5-(methoxyimino-methyl)-pyrimidin-4-yloxy]-2-bromo-phenyl}-3-methyl-urea]",> 10,> 10,> 10,> 10,> 1,> 10,
0.13,"Cc1cc2c(F)c(Oc3ncnc(N)c3C=NOCCCCN3CCCC3)ccc2[nH]1 [Cpd 25, 4-amino-6-(4-fluoro-2-methyl-1H-indol-5-yloxy)-pyrimidine-5-carbaldehyde O-(4-pyrrolidin-1-yl-butyl)-oxime]",> 100,> 100,0.1,> 10,0.596,> 100,

# Second part, the compound before the results:
Compound,"IC50 [2, 3] [µM]",IC50 (A375 malignant melanoma) [µM],IC50 [1] [µM],IC50 (HCT-116 colon carcinoma) [µM],IC50 (murine Aurora-A) [µM],IC50 (HER2 cytoplasmic domain) [µM],IC50 (CDK1:Cyclin-B) [µM],IC50 ([2]; IC50 VEGF-R2) [µM]
"CON=Cc1c(N)ncnc1Oc1ccc(NC(=O)NCCN(C)C)c(Cl)c1 [Cpd 82, 1-{4-[6-amino-5-(methoxyimino-methyl)-pyrimidin-4-yloxy]-2-chloro-phenyl}-3-(2-dimethylamino-ethyl)-urea]",0.285,> 10,> 10,> 10,> 100,> 10,> 100,
"CON=Cc1c(N)ncnc1Oc1ccc(NC(=O)Nc2ccccc2)c(Cl)c1 [Cpd 54, 1-{4-[6-amino-5-(methoxyimino-methyl)-pyrimidin-4-yloxy]-2-chloro-phenyl}-3-phenyl-urea]",0.003,> 100,> 100,> 100,> 100,> 100,> 100,
"CON=Cc1c(N)ncnc1Oc1ccc(NC(=O)NC2CC2)c(Cl)c1 [Cpd 85, 1-{4-[6-amino-5-(methoxyimino-methyl)-pyrimidin-4-yloxy]-2-chloro-phenyl}-3-cyclopropyl-urea]",0.029,> 10,> 100,> 100,> 100,> 100,> 100,
"Cc1cc2c(F)c(Oc3ncnc(N)c3C=NOCCCN3CCNCC3)ccc2[nH]1 [Cpd 21, 4-amino-6-(4-fluoro-2-methyl-1H-indol-5-yloxy)-pyrimidine-5-carbaldehyde O-(3-piperazin-1-yl-propyl)-oxime]",0.036,11.2,24.5,68.1,> 10,0.767,> 100,
"CON=Cc1c(N)ncnc1Oc1ccc(NC(=O)NC2CCCCC2)c(Cl)c1 [Cpd 65, 1-{4-[6-amino-5-(methoxyimino-methyl)-pyrimidin-4-yloxy]-2-chloro-phenyl}-3-cyclohexyl-urea]",0.0065,> 100,> 100,> 100,> 100,> 10,> 100,
"CCCNC(=O)Nc1ccc(Oc2ncnc(N)c2C=NOC)cc1Cl [Cpd 52, 1-{4-[6-amino-5-(methoxyimino-methyl)-pyrimidin-4-yloxy]-2-chloro-phenyl}-3-propyl-urea]",,> 1,> 1,> 1,> 100,> 100,> 100,0.0275
"CON=Cc1c(N)ncnc1Oc1ccc(NC(=O)Nc2ccc(F)cc2F)c(Cl)c1 [Cpd 61, 1-{4-[6-amino-5-(methoxyimino-methyl)-pyrimidin-4-yloxy]-2-chloro-phenyl}-3-(2,4-difluoro-phenyl)-urea]",0.003,> 100,> 100,> 10,> 100,> 100,> 100,
"CON=Cc1c(N)ncnc1Oc1ccc(NC(=O)NCCO)c(Cl)c1 [Cpd 81, 1-{4-[6-amino-5-(methoxyimino-methyl)-pyrimidin-4-yloxy]-2-chloro-phenyl}-3-(2-hydroxy-ethyl)-urea]",0.168,3.91,4.27,4.06,> 100,> 100,> 100,
"CON=Cc1c(N)ncnc1Oc1ccc(NC(=O)NCc2ccc(F)cc2F)c(Cl)c1 [Cpd 78, 1-{4-[6-amino-5-(methoxyimino-methyl)-pyrimidin-4-yloxy]-2-chloro-phenyl}-3-(2,4-difluoro-benzyl)-urea]",0.0103,> 100,> 100,> 100,> 100,> 100,> 100,
"CON=Cc1c(N)ncnc1Oc1ccc(NC(=O)Nc2ccccc2Cl)c(Cl)c1 [Cpd 55, 1-{4-[6-amino-5-(methoxyimino-methyl)-pyrimidin-4-yloxy]-2-chloro-phenyl}-3-(2-chloro-phenyl)-urea]",0.0026,> 10,> 10,> 10,> 10,1.82,> 100,
